The values below come from patent US20240207422A1, “NERVE TARGETING PEPTIDE CONJUGATES AND METHODS OF USE” (Alume Biosciences, Inc., priority 2022, published 2024).

This experiment has as its system excised human nerve tissue. Put plainly: Phage display selection on excised human nerve tissue (Nerve2, Nerve3), NextGen sequence counts. Format: binding. Particulars: unique sequence count (relative enrichment); peptides overlapping between Nerve2 and Plated Nerve2. How it is done:
Several m13 phage libraries were constructed expressing randomized variants of a parent peptide (QVPWEEPYYVVKKS-SGGL; SEQ ID NO: 576). In particular, the first 14 amino acids of the parent peptide were randomized using degenerate oligonucleotide synthesis to obtain a diverse set of peptides with a mutation rate of about 50% per residue.
To accomplish this, synthesis was carried out by the XXK codon design approach, where X is any base and K is G or T. To bias synthesis towards the parent sequence, synthesis was carried out at each X position with a mixture of about 70%-85% of the parent nucleotide and 15-30% of the remaining 3 nucleotides. The resulting molecules were inserted into fADL-1e (Antibody Design Laboratories), which is a type 3 phage display vector having a cloning site on the N-terminal side of the full-length gene III protein. The fusion proteins are directed to the periplasm by the PelB leader peptide, which is inserted in the vector […].
Collectively, the phage display libraries used in the screens comprised about 600 million peptides, with sequencing analysis confirming a mutation rate of about 50% per residue.
Phage libraries were independently processed, as follows, with five biological samples: two independent samples of excised human nerve tissue, one sample of a human nerve extract, and two independent samples of human muscle tissue, as follows:
Excised Human Nerve Tissue: For each of the two independent samples, phage were processed through multiple cycles of selection, with representative phage being isolated and sequenced after each selection cycle. Specifically, for selection using human nerve tissue, a sample of […] tissue (2 mm by 2 mm) was washed prior to mixing and incubation with a phage library. After incubation, the mixture (containing mostly intact nerves with phage particles that had variable affinity for nerves) was centrifuged and the nerve pellet washed multiple times with PBS to remove phage with little or no affinity for nerve tissue. The pellet was homogenized and plated for titering and reamplification. Phage that were bound at each round were sequenced. NextGen sequencing of pools after 2, 3 and 4 rounds of selection were used to isolate candidate sequences that were further analyzed using bioinformatics.
NextGen sequencing of pools after 2, 3 and 4 rounds of selection were used to isolate candidate sequences from each of the five samples. These five data sets were then analyzed as described in the next section.
Peptide and vector sequences were translated starting at the first start codon in the nucleotide sequence. […] Trimmed peptides with identical sequences were combined and quantified according to their frequency (count).
Following processing, an R script was written to merge the unique peptide sequences (with counts 6 or greater) from the 5 different data sets to analyze the overlap between nerve and muscle binding activity.
For the single Nerve2, Nerve3, and Plated Nerve2 (pn2) subsets, the number of counts for each group was set at a threshold giving rise to at least 100 peptides. […] As highlighted in yellow in FIG. 1B, the representative group also included 6 unique peptides overlapping between nerve2 and nerve3, 200 unique peptides overlapping between nerve2 and plated nerve2 (at least 60 counts), 4 unique peptides overlapping between nerve3 and plated nerve2. Finally, as highlighted in green in FIG. 1B, the representative group also included […] common to the nerve2, nerve3, and plated nerve2 sets.

Substance 83 (SIPGEDSLYAVTEH) [compound 83] gave a Count of 142.

The substance 84 (QCPSEQPNYVCKIF) [compound 84] gave a Count of 140.

85 (HGQTQEPSYVTVYY) [compound 85] registered a Count of 139.

As to 86 (HVHWQVPSNIVRNS) [compound 86], the Count is 139.

On to 87 (QLPWYEADYRMEYY) [compound 87], for which the Count stood at 139.

With 88 (QLPSQAQNYYVTAS) [compound 88], the Count stood at 137.

As for 89 (QVTSEEHYFAVKKF) [compound 89], the Count was 136.

The substance 90 (TSLSGAPFHNANTF) [compound 90] showed a Count of 134.

With 91 (HDASIALYDPVLMS) [compound 91], the Count is reported as 133.

92 (QLPGDVTYNLGHKS) [compound 92] yielded a Count of 133.

Consider 93 (QPTWEQPYHVDRNS) [compound 93], for which the Count was found to be 131.

94 (HIPFPGLYSNLDQS) [compound 94] yielded a Count of 127.

Substance 95 (DHPWDVRHYAHKKS) [compound 95] gave a Count of 126.

As for 96 (DVPWKESFNIVENS) [compound 96], the Count is recorded as 126.

With 97 (QFARTAPYYVQTEY) [compound 97], the Count came to 125.

For 98 (QNPWQKPYTVMKTS) [compound 98], the Count worked out at 123.

99 (HLSFEEPLYGVKKS) [compound 99] gave a Count of 122.

100 (QFPSGHRVYTGKMT) [compound 100] registered a Count of 122.

Consider 101 (YNLYEQPYSVLKRS) [compound 101], for which the Count came to 122.

For 102 (HLPSQVTHYVITSF) [compound 102], the Count turned out to be 115.

In the case of 103 (QVPSHEPFYLGKKY) [compound 103], the Count was found to be 114.

The substance 104 (RVTQGSPVYGENNA) [compound 104] showed a Count of 114.

Regarding 105 (QIPMEETYSLRKMS) [compound 105], the Count is given as 113.

For the substance 106 (QIPWEAPSYGATIS) [compound 106], the Count is 113.

Regarding 107 (HVGWEQPYYVLRKS) [compound 107], the Count was 112.

108 (DFATEERRYAVPKY) [compound 108] returned a Count of 111.

Consider 109 (DVPLVKPHYGAVDS) [compound 109], for which the Count stood at 111.

With 110 (QFPSEASHYVVRNS) [compound 110], the Count was found to be 111.

In turn, 111 (HSRLHETSYVFNKP) [compound 111] showed a Count of 110.

Take 112 (HVQRQETDYAAKRI) [compound 112]: the Count was found to be 110.

For 113 (NVLSEEPSSRDANV) [compound 113], the Count was determined as 110.

As for 114 (HLPFEAPYYAVKRS) [compound 114], the Count was 109.

In the case of 115 (QLPGEEPTYVGSNS) [compound 115], the Count is on record as 109.

116 (EVPVGDLSYVGKKY) [compound 116] gave a Count of 108.

117 (QFPLVQPNYLVEMP) [compound 117] had a Count of 108.

For the substance 118 (HVPGQDSYNVVNKF) [compound 118], the Count is recorded as 107.

Substance 119 (HVTYTEASVYKRTF) [compound 119] displayed a Count of 107.

As for 120 (QLEWEEPHYAARKS) [compound 120], the Count was 107.

121 (HYQSVKSYSVQKKI) [compound 121]: the Count worked out at 105.

Substance 122 (QLTSAEASYVGKQS) [compound 122] had a Count of 105.

The substance 123 (HRPWEEPYYVAKQS) [compound 123] yielded a Count of 104.

Substance 124 (LFASENPYNVKSKS) [compound 124] came in with a Count of 103.

For 125 (SVPGEDPSQFGKTP) [compound 125], the Count was 103.

As for 126 (HVPSEEPYKLDEQS) [compound 126], the Count worked out at 102.

Substance 127 (QFRIEDSYDVANQS) [compound 127] showed a Count of 102.

Take 128 (QIYWHESNYLVTKS) [compound 128]: the Count is listed as 102.

The substance 129 (HIPGDETSYVMKKY) [compound 129] gave a Count of 100.

130 (QSLSEEPQYVVTPS) [compound 130] had a Count of 98.

Consider 131 (HILLEEPSNVLNKR) [compound 131], for which the Count came out at 96.

With 132 (TLPVYVPYYVVNNT) [compound 132], the Count is 96.

As for 133 (HMRSEQPYYGGKVS) [compound 133], the Count amounted to 95.

The substance 134 (EVPRTERNFVVKNT) [compound 134] returned a Count of 94.

On to 135 (HGAWEETHYVVIQS) [compound 135], for which the Count is 94.

For the substance 136 (HGRSVESYDLVNKR) [compound 136], the Count is 94.

Substance 137 (QVTWGEPQYVVYKS) [compound 137] gave a Count of 94.

For 138 (QLPSGEPYSFVKES) [compound 138], the Count is recorded as 93.

139 (DVPLEDTYYRVKKY) [compound 139] came in with a Count of 91.

With 140 (HVPFDKSSHLVKKY) [compound 140], the Count worked out at 90.

Substance 141 (QFAWDSPYSRGKKT) [compound 141] showed a Count of 90.

In turn, 142 (HVTWQQTKYVTNRS) [compound 142] yielded a Count of 89.

143 (RFPLEEPNYFQTKS) [compound 143] had a Count of 89.

For the substance 144 (HVTWGKTYHLVTDS) [compound 144], the Count was determined as 88.

145 (LVPWEEPGYFQNTS) [compound 145] returned a Count of 88.

Substance 146 (QYPREEPRHALKMS) [compound 146] yielded a Count of 88.

Substance 147 (NVTFEQSSYVVTSP) [compound 147] returned a Count of 87.

Take 148 (YVTSESPYYVHGQP) [compound 148]: the Count is 87.

As to 149 (HVSGTKPYHLVKKS) [compound 149], the Count is reported as 86.

150 (EDVLHNAYHVETQF) [compound 150]: the Count amounted to 85.

151 (QFAWEHRDYVLQRS) [compound 151] came in with a Count of 85.

On to 152 (QVLWEERLYVVKNS) [compound 152], for which the Count is on record as 83.

In the case of 153 (RSTWEQSYTIVKES) [compound 153], the Count came out at 83.

Regarding 154 (QMASKEPNYPVKNS) [compound 154], the Count turned out to be 82.

Substance 155 (QNPAEEQYIVWNNS) [compound 155] yielded a Count of 82.

Turning to 156 (SHPWEKQYDVFNNS) [compound 156], the Count is 81.

In turn, 157 (DVPWEEPYHVGNWR) [compound 157] came in with a Count of 80.

In turn, 158 (HVASEQPYYGVNRP) [compound 158] yielded a Count of 80.

In the case of 159 (HVLGEEPYYFVQHV) [compound 159], the Count is given as 80.

In the case of 160 (QEPWDEFSYNVNAL) [compound 160], the Count stood at 80.

As for 161 (QFRSGEAYVVVQTS) [compound 161], the Count turned out to be 80.

In turn, 162 (QNAFSKPYNGVKPS) [compound 162] had a Count of 80.

The substance 163 (QIESGEPYHDQKHP) [compound 163] gave a Count of 79.

With 164 (QVRWPEQYYVVNMG) [compound 164], the Count is given as 79.

165 (QYAREEPYYFMSYK) [compound 165]: the Count is on record as 79.

In turn, 166 (QIPCQSDHNVVTNC) [compound 166] yielded a Count of 78.

For 167 (DRLSDEPFKGMTHS) [compound 167], the Count is 77.

Consider 168 (DVRWSDPHDRITKS) [compound 168], for which the Count is listed as 77.

For the substance 169 (HLPWEGPEYLGKKS) [compound 169], the Count turned out to be 77.

170 (HVPRDEPQSFVHRS) [compound 170] returned a Count of 77.

171 (QFSSAEAYTVVNES) [compound 171] registered a Count of 77.

Substance 172 (QIPSHSPYYALNSS) [compound 172] returned a Count of 77.
